Data from paper PMC11117723, “Benzene with Alkyl Chains Is a Universal Scaffold for Multivalent Virucidal Antivirals” (ACS Central Science, 2024).
“Also recorded” adds a separate entry of the source. Where two headings read alike, the source gives them in different places.

Columns and labels:
SARS-CoV-2 Alpha = type: in vivo, Syrian hamster
HSV-2 [1] = assay: HSV-2 DNA release (DNA exposure) assay with DNase; settings: 43.2 and 86.5 μM
Procedure: To determine whether the virucidal effect is caused by the damage to the viral particles, we performed DNA release assays. Briefly, we incubated HSV-2 and B6C11S mixtures with DNase or buffer, inactivated the DNase, and then quantified the DNA amounts in the two samples (Figure 2c).

Vero cells = assay: Vero cell cytotoxicity (MTS assay); type: cell-based; settings: 24 h, read-out: CC50 (95% CI), Vero cells
MDCK cells = settings: read-out: CC50 (95% CI), MDCK cells
HSV-2 [2] = assay: HSV-2 inhibition under four treatment conditions (cell pretreatment, virus pretreatment, cotreatment, post-treatment); type: cell-based
Raji cells = assay: Raji cell cytotoxicity (Zombie NIR flow cytometry); settings: read-out: CC50 (95% CI), Raji cells; EBV line
HEK293T cells = assay: HEK293T cell cytotoxicity (Zombie NIR flow cytometry); settings: read-out: CC50 (95% CI), 293T cells; HEK293T cells; KSHV line
TZM-bl cells = assay: TZM-bl cell cytotoxicity (WST-1); settings: read-out: CC50 (95% CI), TZM-bl cells; HIV-1 line

## O=S(=O)(O)OCCCCCCCCCCCSCc1c(CSCCCCCCCCCCCOS(=O)(=O)O)c(CSCCCCCCCCCCCOS(=O)(=O)O)c(CSCCCCCCCCCCCOS(=O)(=O)O)c(CSCCCCCCCCCCCOS(=O)(=O)O)c1CSCCCCCCCCCCCOS(=O)(=O)O [B6C11S]
SARS-CoV-2 Alpha; […], vs untreated group
  body weight change of infected hamsters: no significant change
SARS-CoV-2 Alpha; hamster, in vivo
  body weight change of infected hamsters: decreased the body weight change
  histopathological evaluation of lung tissues: improved pulmonary conditions
  infectious viral titer (TCID50) in the lungs vs untreated: significantly decreased the viral titer; also recorded: significant reduction in the infectious viral load
  severe lung damage (histopathology categories E and F): reducing severe lung damage
  viral RNA copies in lung vs untreated: significantly decreased viral RNA copies
  viral RNA levels in oral swab vs untreated: significantly lower viral RNA levels
  viral titers (viral RNA) in swab samples and lung tissues vs untreated: did not find any notable differences; also recorded: No statistical difference
HSV-2 [1]
  release of viral DNA (HSV-2): induced the release of viral DNA
Vero cells
  CC50: 200 µM
MDCK cells
  CC50: > 5.4 µM
HSV-2 [2]; condition (i) cell pretreatment, 21.6 μM
  HSV-2 inhibition, cell pretreatment: no inhibition
HSV-2 [2]; condition (ii) virus pretreatment, 5.4 μM
  decrease of percentage of infected cells: over 85%
HSV-2 [2]; condition (iii) cotreatment, 5.4 μM
  decrease of percentage of infected cells: over 85%
HSV-2 [2]; condition (iv) post-treatment, 21.6 μM
  decrease of percentage of infected cells: 85%
Vero E6 cells; read-out: CC50 (95% CI), Vero E6 cells, SARS-CoV-2 (Alpha) line
  CC50: 17.5 µM
Vero E6 cells; read-out: CC50 (95% CI), Vero E6 cells, value repeated in the SARS-CoV-2 (Omicron) line
  CC50: 17.5 µM
Raji cells
  CC50: > 162 µM
HEK293T cells
  CC50: > 162 µM
TZM-bl cells
  CC50: > 54 µM
